Experimental data as given in paper PMC6522510 (Nature Communications, 2019).

Tests used:
Set-up in all cases: species or system AML cell lines (8); Primary HTS, single concentration about 10 uM, Cell Titer Glo viability; log10 luminescence, per cent inhibition relative to cycloheximide control
Conditions in all cases: 72 h, relative to cycloheximide control, log10 luminescence; inhibitor
[1] = tested on: CHRF288-11
[2] = tested on: CMK
[3] = tested on: CMS
[4] = tested on: M07e
[5] = tested on: ML-2
[6] = tested on: MOLM-13
[7] = tested on: MV4-11
[8] = tested on: U937

SMILES | CHRF288-11 %inh [1] [%] | CMK %inh [2] [%] | CMS %inh [3] [%] | M07e %inh [4] [%] | ML-2 %inh [5] [%] | MOLM-13 %inh [6] [%] | MV4-11 %inh [7] [%] | U937 %inh [8] [%]
COC(=O)Nc1nc2ccc(Sc3ccc(NC(=O)Nc4cc(C(F)(F)F)ccc4F)cc3)cc2[nH]1 [SJ000573029-1, T229/195/1] | 10.2 | 38.89 | -0.01293 | 3.372 | 2.621 | 17.62 | 2.362 | 5.795
NC(=O)c1cccc(Nc2nccc(Nc3cccc4[nH]ncc34)n2)c1 [SJ000573030-1, JA205171-001A6] | 16.39 | -1.424 | 1.464 | 5.4 | 2.579 | 22.42 | 23.15 | -0.8011
Cc1cccc(Nc2ncc(-c3ccccc3)o2)c1 [SJ000573031-1, U21834/25/1] | 1.444 | 4.152 | 1.47 | 2.356 | 2.781 | 78.79 | 58.38 | 0.1537
NC(=O)c1sc(-n2cnc3ccccc32)cc1OCc1ccccc1Br [SJ000573032-1, U22538/78/1] | -0.9565 | 4.627 | 2.746 | 3.083 | 42.25 | 1.858 | 0.1879 | 1.777
O=C(Nc1ccc(Oc2ccc3[nH]c(NC(=O)c4ccco4)nc3c2)cc1)Nc1cc(C(F)(F)F)ccc1F [SJ000573033-1, T261/93/1] | 89.61 | 84.76 | 23.46 | 35.38 | 20.85 | 87.05 | 70.61 | 42.07
NS(=O)(=O)c1cccc(-c2cc3ccncc3cc2OCc2ccccc2)c1 [SJ000573034-1, R14712/3/10] | 2.678 | -0.5905 | 1.551 | -1.198 | 0.9825 | 2.316 | 0.8878 | 3.709
COc1cccc(-n2ncc3c(N/N=C/c4ccc(C)cc4)ncnc32)c1 [SJ000573035-1, U19125/70/4] | -5.466 | -4.291 | 5.04 | -2.359 | -2.47 | -2.64 | -1.749 | 2.182
CNC(=O)c1ncccc1Nc1nc(Nc2cc3c(cc2OC)CCCN3C(=O)CN(C)C)nc2[nH]ccc12 [SJ000573036-1, N6938-65-1] | 21.29 | 7.075 | 1.812 | 30.44 | 45.98 | 47.47 | 4.775 | 17.5
COc1cccc(-n2ncc3c(N/N=C/c4ccncc4)ncnc32)c1 [SJ000573037-1, U25132/28/11] | 6.081 | -6.6 | 4.136 | -4.147 | 0.6096 | -2.08 | 1.553 | -2.89
COc1cc2c(cc1Nc1nc(Nc3ccsc3C(N)=O)c3cc[nH]c3n1)N(C(=O)CN(C)C)CCC2(C)C [SJ000573038-1, N3343-83-1] | 128.8 | 81.26 | 16.39 | 57.48 | 44.68 | 92.5 | 43.78 | 51.73
C[C@@H](Oc1cc(-n2cnc3ccc(OCC4CCN(C)CC4)cc32)sc1C(N)=O)c1ccccc1Cl [SJ000573039-1, U21976/12/1] | 126.6 | 58.58 | 55.73 | 70.45 | 55.39 | 92.23 | 68.81 | 67.65
COc1cc(C)c(NC(=O)CN(C)C)cc1Nc1nc(Nc2cccc(F)c2C(N)=O)c2cc[nH]c2n1 [SJ000573040-1, N5326-72-2] | 60.84 | 111.2 | 31.36 | 103.3 | 42.89 | 90.07 | 56.47 | 70.41
Nc1ccc(C#Cc2cncnc2Nc2ccc(OCc3cccc(F)c3)c(Cl)c2)cc1 [SJ000573041-1, U17810/18/1] | 2.448 | 13.47 | 3.795 | 8.047 | 5.257 | 7.505 | 4.494 | 3.684
COc1cc(C)c(N(C)C(=O)CN(C)C)cc1Nc1nc(Nc2cccc(F)c2C(N)=O)c2cc[nH]c2n1 [SJ000573042-1, N5326-79-1] | 20.31 | 3.967 | 1.596 | -1.728 | 14.99 | -1.115 | 3.146 | -0.591
COc1cc2c(cc1Nc1nc(N3CCc4ccccc43)c3cc[nH]c3n1)N(C(=O)CN(C)C)CC2 [SJ000573043-1, N7699-100-1] | 128.5 | 123.9 | 96.79 | 130.8 | 54.96 | 9.876 | 75.42 | 74.23
COc1cc2c(cc1Nc1nc(Nc3ccsc3C(N)=O)c3cc[nH]c3n1)N(C(=O)CN(C)C)CCC2 [SJ000573044-1, N3343-60-3] | 98.1 | 100.5 | 65.93 | 106 | 41.91 | 89.42 | 66.76 | 74.84
Nc1ncnc2occ(-c3ccc(NC(=O)Nc4cccc(C(F)(F)F)c4)cc3)c12 [SJ000573045-1, CL210513-033A3] | 45.6 | 22.69 | 11.5 | 17.9 | 6.046 | 88.68 | 73.96 | 26.65
CCn1c(-c2nonc2N)nc2cncc(C(=O)NCCNC)c21 [SJ000573046-1, FIDE/U1002/66/2] | 15.2 | 39.87 | 12.48 | 12.62 | 17.45 | 9.392 | 47.15 | 25.48
